Experimental findings from patent US20070027143A1, “Novel substituted 2,3-benzodiazepine derivatives” (priority 2003, published 2007) are described below.

The melting point is the temperature of the solid-liquid transition. Molecule `CC1Cc2cc3c(cc2C(c2ccc(N)cc2)=NN1c1ncn(C)n1)OCO3` (racemic) [Example 116, (±)-5-(4-Aminophenyl)-8-methyl-7-(1-methyl-1H-1,2,4-triazol-3-yl)-8,9-dihydro-7H-1,3-dioxolo-[4,5-h][2,3]benzodiazepine] yielded a melting point of 165 to 168 °C.
The value for `COc1ccc2c(c1)C(c1ccc(N)cc1)=NN(c1nnc(C)s1)C(C)C2` (racemic) [Example 98, (±)-1-(4-Aminophenyl)-4-methyl-3-(5-methyl-1,3,4-thiadiazol-2-yl)-8-methoxy-4,5-dihydro-3H-[2,3]benzodiazepine] was 180 to 184 °C; that for `Cc1csc(N2N=C(c3ccc(N)cc3)c3cc(Cl)ccc3CC2C)n1` (racemic) [Example 78, (±)-1-(4-Aminophenyl)-8-chloro-4-methyl-3-(4-methyl-thiazol-2-yl)-4,5-dihydro-3H-[2,3]benzodiazepine] was 173 to 175 °C.
The same measure for `Cc1nnc(N2N=C(c3ccc(N)c(C)c3)c3cc4c(cc3C[C@H]2C)OCO4)o1` [Example 181, (R)-5-(4-Amino-3-methylphenyl)-8-methyl-7-(5-methyl-1,3,4-oxadiazol-2-yl)-8,9-dihydro-7H-1,3-dioxolo[4,5-h][2,3]benzodiazepine]: 140 to 145 °C.
The value for `Cc1cc(C2=NN(c3nccs3)[C@H](C)Cc3cc4c(cc32)OCO4)ccc1N` [Example 164, (R)-5-(4-Amino-3-methylphenyl)-8-methyl-7-(thiazol-2-yl)-8,9-dihydro-7H-1,3-dioxolo-[4,5-h][2,3]benzodiazepine] was 124 to 127 °C.
Turning to `CC(=O)Nc1ccc(C2=NN(c3nnc(C)s3)[C@H](C)Cc3cc4c(cc32)OCO4)cc1` [Example 130, (R)-5-(4-Acetylaminophenyl)-8-methyl-7-(5-methyl-1,3,4-thiadiazol-2-yl)-8,9-dihydro-7H-1,3-dioxolo-[4,5-h][2,3]benzodiazepine], the melting point lay within 276 to 277 °C.
The same measure for `Cc1cc(C2=NN(c3nnc(C(C)C)s3)[C@H](C)Cc3cc4c(cc32)OCO4)ccc1N` [Example 169, (R)-5-(4-Amino-3-methylphenyl)-7-(5-isopropyl-1,3,4-thiadiazol-2-yl)-8-methyl-8,9-dihydro-7H-1,3-dioxolo[4,5-h][2,3]benzodiazepine]: 134 to 140 °C; for `CC1Cc2cc3c(cc2C(c2ccc(N)cc2)=NN1C1=NC(=O)C(C)(C)S1)OCO3` (racemic) [Example 193, (±)-5-(4-Aminophenyl)-8-methyl-7-(5,5-dimethyl-4-oxo-4,5-dihydrothiazol-2-yl)-8,9-dihydro-7H-1,3-dioxolo-[4,5-h][2,3]benzodiazepine]: 124 to 130 °C; for `CCc1nnc(N2N=C(c3ccc([N+](=O)[O-])cc3)c3cc4c(cc3C[C@H]2C)OCO4)s1` [Example 31, (R)-7-(5-Ethyl-1,3,4-thiadiazol-2-yl)-8-methyl-5-(4-nitrophenyl)-8,9-dihydro-7H-1,3-dioxolo[4,5-h][2,3]benzodiazepine]: 105 °C.
The same measure for `Cc1cnc(N2N=C(c3ccc(N)cc3)c3cc4c(cc3CC2C)OCO4)s1` (racemic) [Example 64, (±)-5-(4-Aminophenyl)-8-methyl-7-(5-methyl-thiazol-2-yl)-8,9-dihydro-7H-1,3-dioxolo-[4,5-h][2,3]benzodiazepine]: 165 to 167 °C; for `CCOC(=O)c1nnc(N2N=C(c3ccc(N)c(C)c3)c3cc4c(cc3C[C@H]2C)OCO4)s1` [Example 175, (R)-5-(4-Amino-3-methylphenyl)-7-(5-ethoxycarbonyl-1,3,4-thiadiazol-2-yl)-8-methyl-8,9-dihydro-7H-1,3-dioxolo[4,5-h][2,3]benzodiazepine]: 135 to 140 °C.
The molecule `CC1=NN=C(N2N=C(c3ccc(N)cc3)c3cc4c(cc3CC2C)OCO4)SC1` (racemic) [Example 99, (±)-5-(4-Aminophenyl)-8-methyl-7-(5-methyl-6H-1,3,4-thiadiazin-2-yl)-8,9-dihydro-7H-1,3-dioxolo-[4,5-h][2,3]benzodiazepine] came in with a melting point of 154 to 157 °C.
The value for `Cc1cc(C2=NN(c3nnc(CC#N)s3)[C@H](C)Cc3cc4c(cc32)OCO4)ccc1N` [Example 173, (R)-5-(4-Amino-3-methylphenyl)-7-(5-cyanomethyl-1,3,4-thiadiazol-2-yl)-8-methyl-8,9-dihydro-7H-1,3-dioxolo[4,5-h][2,3]benzodiazepine] was 135 to 140 °C.
`CC1Cc2cc3c(cc2C(c2ccc(N)cc2)=NN1C1N=CNN1)OCO3` (racemic) [Example 113, (±)-5-(4-Aminophenyl)-8-methyl-7-(1H(2H)1,2,4-triazol-3-yl)-8,9-dihydro-7H-1,3-dioxolo-[4,5-h][2,3]benzodiazepine] came in with a melting point of 178 to 181 °C.
The same measure for `CC(=O)Nc1ccc(C2=NN(C3=NCCS3)C(C)Cc3cc4c(cc32)OCO4)cc1` (racemic) [Example 122, (±)-5-(4-Acetylaminophenyl)-7-(4,5-dihydro-thiazol-2-yl)-8-methyl-8,9-dihydro-7H-1,3-dioxolo-[4,5-h][2,3]benzodiazepine]: 211 to 213 °C; for `CC1Cc2cc3c(cc2C(c2ccc(N)cc2)=NN1c1nccs1)OCO3` (racemic) [Example 60, (±)-5-(4-Aminophenyl)-8-methyl-7-(2-thiazolyl)-8,9-dihydro-7H-1,3-dioxolo[4,5-h][2,3]benzodiazepine]: 187 to 190 °C; for `C[C@@H]1Cc2cc3c(cc2C(c2ccc(N)cc2)=NN1c1cnns1)OCO3` [Example 186, (R)-5-(4-Aminophenyl)-8-methyl-7-(1,2,3-thiadiazol-5-yl)-8,9-dihydro-7H-1,3-dioxolo-[4,5-h][2,3]benzodiazepine]: 220 to 221 °C.
The same measure for `Cc1nc(N2N=C(c3ccc(N)cc3)c3cc4c(cc3CC2C)OCO4)n(C)n1` (racemic) [Example 117, (±)-5-(4-Aminophenyl)-8-methyl-7-(2,5-dimethyl-2H-1,2,4-triazol-3-yl)-8,9-dihydro-7H-1,3-dioxolo-[4,5-h][2,3]benzodiazepine]: 185 to 187 °C.
The value for `CC1Cc2ccc(Cl)cc2C(c2ccc(N)cc2)=NN1c1nccs1` (racemic) [Example 77, (±)-1-(4-Aminophenyl)-8-chloro-4-methyl-3-(2-thiazolyl)-4,5-dihydro-3H-[2,3]benzodiazepine] was 104 to 107 °C; that for `CCCCCCc1nnc(N2N=C(c3ccc(N)c(C)c3)c3cc4c(cc3C[C@H]2C)OCO4)s1` [Example 178, (R)-5-(4-Amino-3-methylphenyl)-7-(5-hexyl-1,3,4-thiadiazol-2-yl)-8-methyl-8,9-dihydro-7H-1,3-dioxolo[4,5-h][2,3]benzodiazepine] was 180 to 181 °C.
Molecule `Cc1nnc(N2N=C(c3ccc(N)cc3)c3cc(Cl)ccc3CC2C)s1` (racemic) [Example 94, (±)-1-(4-Aminophenyl)-8-chloro-4-methyl-3-(5-methyl-1,3,4-thiadiazol-2-yl)-4,5-dihydro-3H-[2,3]benzodiazepine] showed a melting point of 131 to 133 °C.
The same measure for `CC1=NC(N2N=C(c3ccc(N)cc3)c3cc4c(cc3CC2C)OCO4)NN1` (racemic) [Example 114, (±)-5-(4-Aminophenyl)-8-methyl-7-(5-methyl-1H(2H)-1,2,4-triazol-3-yl)-8,9-dihydro-7H-1,3-dioxolo-[4,5-h][2,3]benzodiazepine]: 166 to 169 °C; for `CCc1nnc(N2N=C(c3ccc([N+](=O)[O-])cc3)c3cc4c(cc3CC2C)OCO4)s1` (racemic) [Example 30, (±)-7-(5-Ethyl-1,3,4-thiadiazol-2-yl)-8-methyl-5-(4-nitrophenyl) 8,9-dihydro-7H-1,3-dioxolo[4,5-h][2,3]benzodiazepine]: 163 to 164 °C.
The value for `CC1Cc2cc3c(cc2C(c2ccc(N)cc2)=NN1c1ccc(Cl)nn1)OCO3` (racemic) [Example 112, (±)-5-(4-Aminophenyl)-7-(3-chloropyridazin-6-yl)-8-methyl-8,9-dihydro-7H-1,3-dioxolo-[4,5-h][2,3]benzodiazepine] was 164 to 166 °C.
The value for `CC1Cc2cc3c(cc2C(c2ccc(N)cc2)=NN1C1=NCCO1)OCO3` (racemic) [Example 82, (±)-5-(4-Aminophenyl)-7-(4,5-dihydro-oxazol-2-yl)-8-methyl-8,9-dihydro-7H-1,3-dioxolo-[4,5-h][2,3]benzodiazepine] was 166 to 167 °C; that for `CSCc1nnc(N2N=C(c3ccc([N+](=O)[O-])c(C)c3)c3cc4c(cc3C[C@H]2C)OCO4)s1` [Example 143, (R)-8-Methyl-5-(3-methyl-4-nitrophenyl)-7-(5-methylthiomethyl-1,3,4-thiadiazol-2-yl)-8,9-dihydro-7H-1,3-dioxolo[4,5-h][2,3]benzodiazepine] was 132 to 134 °C.
Regarding `Cc1cc(C2=NN(c3nnc(CC#N)s3)[C@H](C)Cc3cc4c(cc32)OCO4)ccc1[N+](=O)[O-]` [Example 142, (R)-7-(5-Cyanomethyl-1,3,4-thiadiazol-2-yl)-8-methyl-5-(3-methyl-4-nitrophenyl)-8,9-dihydro-7H-1,3-dioxolo[4,5-h][2,3]benzodiazepine], the melting point was in the range of 118 to 122 °C.
The same measure for `CC1Cc2cc3c(cc2C(c2ccc(N)cc2)=NN1c1nc(=O)n(C)s1)OCO3` (racemic) [Example 103, (±)-5-(4-Aminophenyl)-8-methyl-7-(2-methyl-3-oxo-2,3-dihydro-1,2,4-thiadiazol-5-yl)-8,9-dihydro-7H-1,3-dioxolo[4,5-h][2,3]benzodiazepine]: 213 °C.
Consider `C[C@H]1Cc2cc3c(cc2C(c2ccc(N)cc2)=NN1c1nccs1)OCO3` [Example 62, (S)-5-(4-Aminophenyl)-8-methyl-7-(2-thiazolyl)-8,9-dihydro-7H-1,3-dioxolo[4,5-h][2,3]benzodiazepine], for which the melting point lay in the range of 124 to 128 °C.
Regarding `CC1Cc2ccc(Cl)cc2C(c2ccc(N)cc2)=NN1C1=NCCS1` (racemic) [Example 79, (±)-1-(4-Aminophenyl)-3-(4,5-dihydro-thiazol-2-yl)-8-chloro-4-methyl-4,5-dihydro-3H-[2,3]benzodiazepine], the melting point lay within 213 to 216 °C.
